Data: patent publication US20260242392A1, “ARYL TRICYCLIC STING AGONISTS AND USE THEREOF” (SHENZHEN GENUINE BIOTECHNOLOGY CO., LTD., priority 2023, published 2026)
Like-named read-outs stand apart in the source and are kept apart here.

How the values were obtained:
human STING protein = human STING protein (Homo sapiens, UniProt Q86WV6); conditions: cited from earlier work
[1] = system: human non-small cell lung cancer; conditions: in combination with standard chemotherapy; cited from earlier work
[2] = mouse; for oral availability: ICR, in vivo, 5 mg/kg; for clearance in vivo compared to MAS-2: po
Procedure: (§1) The doses for IV and PO were 2 mg/kg and 5 mg/kg, respectively. Blood was collected at different time points after IV and PO administration and placed in heparinized tubes. Plasma was separated and frozen in a −20° C. refrigerator. Plasma was processed and then analyzed by LCMS/MS. Pharmacokinetic parameters of drug administration were calculated using a non-compartmental model in WinNonlin 8.2 software.

in vivo = conditions: ICR, mouse
Procedure: as §1

[3] = system: mouse colorectal cancer CT26 cell line; test: Subcutaneous tumor model of female Balb/c mice transplanted with mouse colorectal cancer CT26 cell line; format: in vivo; conditions: separate CT26 model cohort, 20 mg/kg
Procedure: Pharmacodynamic Evaluation of Test Compounds in a Subcutaneous Tumor Model of Female Balb/c Mice Transplanted with Mouse Colorectal Cancer CT26 Cell Line
CT-26 tumor cells were cultured in a suitable culture medium. Cells in the exponential growth phase were collected and subcutaneously inoculated into the right back of experimental mice. Tumor growth was observed regularly after inoculation. When the tumor reached an average volume of approximately 100 mm^3, mice were randomly grouped based on tumor size and body weight for administration. The day of grouping was defined as Day 0. Test compounds were administered orally once weekly for 4 times. The efficacy was evaluated by calculating the tumor growth inhibition (TGI) based on the tumor volume, and the safety was evaluated based on the changes in animal body weight and death. […] All test compounds were well-tolerated.

[4] = Pharmacokinetic (PK) study in ICR mice, IV and PO
Procedure: as §1

[5] = ICR, mouse, plasma, iv, 2 mg/kg
[6] = ICR, mouse, plasma, po, 5 mg/kg
[7] = mouse PK, injection 2 mg/kg and oral 5 mg/kg

Sequence of human STING protein (Q86WV6 whole entry): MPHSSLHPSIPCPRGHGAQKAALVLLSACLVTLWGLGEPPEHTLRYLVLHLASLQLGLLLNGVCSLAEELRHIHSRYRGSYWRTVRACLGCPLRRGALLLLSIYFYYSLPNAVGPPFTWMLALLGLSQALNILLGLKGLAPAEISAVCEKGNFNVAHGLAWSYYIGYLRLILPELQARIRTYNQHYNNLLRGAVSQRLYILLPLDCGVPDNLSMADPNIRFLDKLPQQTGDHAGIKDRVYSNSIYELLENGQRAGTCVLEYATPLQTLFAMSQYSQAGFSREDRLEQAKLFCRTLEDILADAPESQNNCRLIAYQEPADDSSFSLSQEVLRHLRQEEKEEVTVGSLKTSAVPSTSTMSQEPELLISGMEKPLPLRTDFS

Structure (SMILES) | oral availability [2] [%] | clearance in vivo compared to MAS-2 [2] | AUC(0-t) (in vivo; iv, 2 mg/kg) [ng·h/mL] | Vd (in vivo; iv, 2 mg/kg) [L/kg] | clearance (in vivo; iv, 2 mg/kg) [mL/min/kg] | half-life (in vivo; iv, 2 mg/kg) [h] | AUC(0-t) (in vivo; po, 5 mg/kg) [ng·h/mL] | Cmax (in vivo; po, 5 mg/kg) [ng/mL] | bioavailability (in vivo; po, 5 mg/kg) [%] | half-life (in vivo; po, 5 mg/kg) [h] | tumor growth inhibition (TGI) [3] [%] | other results
Cc1ccc2c(=O)c3cccc(CC(=O)O)c3oc2c1C [DMXAA] | – | – | – | – | – | – | – | – | – | – | – | activation of human STING protein (human STING protein): fails to activate; clinical efficacy [1]: failed to show significant efficacy
COc1cc2sc(C(=O)C[C@H](C)C(=O)O)cc2c2ncoc12 [Example 46, (S)-4-(4-methoxythieno[2′,3′:5,6]benzo[1,2-d]oxazol-7-yl)-2-methyl-4-oxobutanoic acid] | 64.6 | lower clearance | 3540 | 0.32 | 9.38 | 1.72 | 5710 | 6480 | 64.6 | 1.61 | – | –
CC[C@@H](CC(=O)c1cc2c(cc(OC)c3ocnc32)s1)C(=O)O [Compound 51] | – | – | – | – | – | – | – | – | – | – | 99 | AUC(0-t) [4, 5]: 3240 ng·h/mL; Vd [4, 5]: 1.28 L/kg; clearance [4, 5]: 10.2 mL/min/kg; half-life [4, 5]: 4.36 h; AUC(0-t) [4, 6]: 8550 ng·h/mL; Cmax [4, 6]: 4550 ng/mL; bioavailability [4, 6]: 105%; half-life [4, 6]: 3.1 h; clearance in vivo compared to MAS-2 [4, 7]: lower clearance; exposure in vivo compared to MAS-2 [4, 7]: higher exposure; oral availability ([4]; mouse PK, oral administration at 5 mg/kg): 100%
COc1cc2sc(C(=O)CC(C)C(=O)O)cc2c2ncoc12 (centres unmarked) [Example 12] | 100 | lower clearance | 1570 | 0.49 | 21.2 | 1.5 | 4060 | 6020 | 104 | 2 | – | –
CC[C@@H](CC(=O)c1cc2c(cc(OC)c3oc(C)nc32)s1)C(=O)O [Compound 53] | – | – | – | – | – | – | – | – | – | – | 101 | –
